Laboratory results: patent US20050175535A1 (CV Therapeutics, Inc., priority 2000, published 2005)
pEC50, pKi: −log10 of the molar value. Like-named read-outs stand apart in the source and are kept apart here.

Legend:
[1] = system: rat isolated perfused heart; test: Coronary conductance / coronary perfusion pressure in isolated perfused rat hearts; details: for pEC50 / EC50: Rattus norvegicus; for pEC50: read-out: EC50, Coronary Conductance (Rat Isolated Heart); for EC50: read-out: pEC50 ± SEM, Coronary Conductance (Rat Isolated Heart) (converted); for effect on coronary conductance: isolated rat hearts, in words
Experimental: Briefly, rats of either sex weighing 230-260 grams were anesthetized by intraperitoneal injection of a mixture of ketamine (100 mg/ml) and xylazine (20 mg/ml). The chest of each rat was opened and the heart removed, and rinsed in ice-cold modified Krebs-Henseleit (K-H) solution containing NaCl 117.9, KCl 4.5, CaCl2 2.5, MgSO4 1.18, KH2PO4 1.18, pyruvate 2.0 mmo/L. The aorta was cannulated and the heart was perfused at a flow rate of 10 ml/min with modified K-H solution. The K-H solution (pH 7.4) was gassed continuously with 95% O2 and 5% CO2 and warmed to 35±0.5° C. The heart was electrically paced at a fixed cycle length of 240 ms (250 beats/min) using a bipolar electrode placed in the left atrium. The electrical stimuli were generated by a Grass stimulator (Model S48, W. Warwick, R.I.) and delivered through a Stimuli Isolation Unit (Model SIU5, Astro-Med, Inc., NY) as square-wave pulses of 3-msec in duration and with an amplitude of at least twice the threshold intensity.
The identity of the adenosine receptor subtype (A1 or A2A) mediating the coronary vasodilation was determined.
Coronary perfusion pressure (CPP) was measured using a pressure transducer that was connected to the aortic cannula via a T-connector positioned approximately 3 cm above the heart. CPP was monitored throughout an experiment and recorded either on a chart recorder (Gould Recorder 2200S, Valley View, Ohio) or a computerized recording system (PowerLab/4S, ADInstruments Pty Ltd, Australia). Only hearts with CPP ranging from 60 to 85 mmHg (in the absence of drugs) were used in the study. CC conductance (in ml/min/mmHg) was calculated as the ratio between coronary perfusion rate (10 ml/min) and CPP.

[2] = target: A2A adenosine receptors (Rattus norvegicus, UniProt P30543); test: Competitive radioligand binding, [3H]ZM241385, PC12 cell membranes
A2A adenosine receptors, sequence (P30543 whole entry): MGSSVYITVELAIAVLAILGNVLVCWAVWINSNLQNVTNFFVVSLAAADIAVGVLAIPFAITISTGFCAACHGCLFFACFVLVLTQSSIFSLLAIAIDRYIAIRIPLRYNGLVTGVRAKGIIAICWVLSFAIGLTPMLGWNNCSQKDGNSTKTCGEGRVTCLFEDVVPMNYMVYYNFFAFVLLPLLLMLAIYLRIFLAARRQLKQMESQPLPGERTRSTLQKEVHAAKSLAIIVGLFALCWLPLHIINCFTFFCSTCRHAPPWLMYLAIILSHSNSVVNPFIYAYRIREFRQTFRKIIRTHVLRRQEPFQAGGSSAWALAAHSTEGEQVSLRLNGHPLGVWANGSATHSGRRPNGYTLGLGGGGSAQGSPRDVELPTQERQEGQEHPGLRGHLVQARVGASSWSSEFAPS
Experimental: Rat pheochromocytoma PC12 cells were obtained from the American Type Culture Collection and grown in DMEM with 5% fetal bovine serum, 10% horse serum, 0.5 mmol/L L-glutamine, 100 U/mL penicillin, 0.1 mg/l mL streptomycin, and 2.5 μg/mL amphotericin.
Cell membranes were harvested from the cell lines by detaching cells from the culture plates into ice-cold 50 mmol/L Tris-HCl buffer (pH 7.4). The cell suspensions were homogenized and centrifuged at 48,000g for 15 minutes. The pellets were washed three times by re-suspension in ice-cold Tris-HCl buffer and centrifugation. The final pellet was re-suspended in Tris-HCl, aliquoted and frozen at −80° C. until used for receptor binding assays.
Briefly, membrane suspensions, obtained from cells expressing either adenosine receptor subtypes A1, A2A, A2B or A3were incubated for 2 hours at room temperature in 50 mmol/L Tris-HCl buffer (pH 7.4) containing ADA (1U/mL). […] At the end of the incubation, free radioligand was separated from membrane-bound radioligand by filtration through Whatman GF/C glass fiber filters using a Brandel tissue harvester (Gaithersburg, Md.). Triplicate determinations were performed for each concentration of unlabelled compound.

[3] = Coronary and peripheral artery blood flow velocity, HR and MAP in anesthetized closed-chest dogs; type: in vivo; design: APV: unit not given here; details: for APV / MAP / HR: Ado (200 or 300 ug/kg); for Coronary, maximal folds increase in average peak velocity (APVmax/APVbaseline) / Peripheral, maximal folds increase in average peak velocity (APVmax/APVbaseline): iv injection of CVT-3146 (1 μg/kg) and adenosine (200 or 300 μg/kg)
Experimental: Mongrel dogs (either sex, 17-21 kg; n=6) were obtained from a local vendor (Barton, Oxford, N.J.). Blood flow velocity in the coronary and cranial circumflex arteries was measured using Doppler transducer-tipped guide wires 0.014″ in diameter (FloWire®, model 1400J) purchased from Cardiometrics, Inc., Mountain View, Calif. For the positioning of the FloWire, a Judkins left coronary guiding catheter (JL3.5, 8F; Cordis) was used. Vascular arterial angiography was performed using Hypaque-76 contrast fluid (Bracco Diagnostics, Inc., Princeton, N.J.; Lot #9H28899) and a mobile fluoroscopic unit (Philips, BV 29). Systemic arterial blood pressure was measured using an electronic transducer-tipped catheter (Millar).
Following the administration of heparin (20 U/kg+100 U/hr), the pressure transducer-tipped catheter was introduced through the left femoral artery and positioned in the descending aorta. The Doppler FloWire was introduced through the right femoral artery. A peripheral vein was cannulated for the administration of all drugs. […] The sequence of positioning of the Doppler catheter was reversed in consecutive experiments. […] All parameters were allowed to recover (>30 min) to their respective baseline values between two consecutive drug administrations. […] The effect of adenosine on both coronary and peripheral artery APV was studied in five of the six dogs.
The following parameters were monitored and recorded: Average peak coronary and peripheral artery blood flow velocity (APV), mean arterial blood pressure (MAP) (mmHg), and sinus cycle length (SCL; msec). Differences in measure parameters were tested for statistical significance using ANOVA and Student's t test corrected for multiple measurements. Data are expressed as the mean±SEM.

[4] = CVT-3146 1 μg/kg, adenosine 200 or 300 μg/kg iv bolus, anesthetized dogs
[5] = anesthetized dogs, listed as adenosine

CCCCCn1cc(-c2nc(N)c3ncn(C4O[C@@H](CO)[C@H](O)[C@@H]4O)c3n2)cn1 (some centres unmarked) [CVT-3033]
pEC50 [1]: 7.17
EC50 [1]: 64.6 nM
effect on coronary conductance [1]: increased coronary conductance in a concentration-dependent manner
pKi ([2]; binding affinity to A2A in PC12 cells (Ki)): 5.44
pKi ([2]; pKi ± SEM, PC12 cells (A2A), [3H]ZM241385): 5.45

Nc1ncnc2c1ncn2[C@@H]1O[C@H](CO)[C@@H](O)[C@H]1O [Adenosine, adenosine, reference compound]
pEC50 [1]: 7.23
EC50 [1]: 57.5 nM
effect on coronary conductance [1]: concentration-dependent increases in coronary conductance
APV ([3]; Coronary, time 1′, Baseline 42 ± 5): 39 ± 8
MAP ([3]; Coronary, time 1′, Baseline […] ± 6): 113 ± 6 mmHg
HR ([3]; Coronary, time 1′, Baseline 170 ± 10): 175 ± 5
APV ([3]; Coronary, time 1.5′, Baseline 42 ± 5): 55 ± 8
MAP ([3]; Coronary, time 1.5′, Baseline […] ± 6): 117 ± 6 mmHg
HR ([3]; Coronary, time 1.5′, Baseline 170 ± 10): 171 ± 5
APV ([3]; Coronary, time 2′, Baseline 42 ± 5): 52 ± 7
MAP ([3]; Coronary, time 2′, Baseline […] ± 6): 120 ± 6 mmHg
HR ([3]; Coronary, time 2′, Baseline 170 ± 10): 170 ± 5
APV ([3]; Coronary, time 3′, Baseline 42 ± 5): 49 ± 6
MAP ([3]; Coronary, time 3′, Baseline […] ± 6): 125 ± 6 mmHg
HR ([3]; Coronary, time 3′, Baseline 170 ± 10): 168 ± 8
APV ([3]; Coronary, time 4′, Baseline 42 ± 5): 47 ± 6
MAP ([3]; Coronary, time 4′, Baseline […] ± 6): 126 ± 6 mmHg
HR ([3]; Coronary, time 4′, Baseline 170 ± 10): 164 ± 10
APV ([3]; Coronary, time 5′, Baseline 42 ± 5): 47 ± 6
MAP ([3]; Coronary, time 5′, Baseline […] ± 6): 128 ± 6 mmHg
HR ([3]; Coronary, time 5′, Baseline 170 ± 10): 163 ± 10
APV ([3]; Coronary, time 10″, Baseline 42 ± 5): 90 ± 10
MAP ([3]; Coronary, time 10″, Baseline […] ± 6): 126 ± 8 mmHg
HR ([3]; Coronary, time 10″, Baseline 170 ± 10): 174 ± 7
APV ([3]; Coronary, time 20″, Baseline 42 ± 5): 85 ± 10
MAP ([3]; Coronary, time 20″, Baseline […] ± 6): 90 ± 9 mmHg
HR ([3]; Coronary, time 20″, Baseline 170 ± 10): 166 ± 11
APV ([3]; Coronary, time 30″, Baseline 42 ± 5): 75 ± 9
MAP ([3]; Coronary, time 30″, Baseline […] ± 6): 107 ± 9 mmHg
HR ([3]; Coronary, time 30″, Baseline 170 ± 10): 173 ± 6
APV ([3]; Peripheral, time 1′, Baseline 33 ± 3): 44 ± 7
MAP ([3]; Peripheral, time 1′, Baseline 118 ± 8): 105 ± 6 mmHg
HR ([3]; Peripheral, time 1′, Baseline 165 ± 10): 171 ± 6
APV ([3]; Peripheral, time 1.5′, Baseline 33 ± 3): 38 ± 4
MAP ([3]; Peripheral, time 1.5′, Baseline 118 ± 8): 106 ± 7 mmHg
HR ([3]; Peripheral, time 1.5′, Baseline 165 ± 10): 171 ± 6
APV ([3]; Peripheral, time 2′, Baseline 33 ± 3): 35 ± 3
MAP ([3]; Peripheral, time 2′, Baseline 118 ± 8): 110 ± 6 mmHg
HR ([3]; Peripheral, time 2′, Baseline 165 ± 10): 169 ± 6
APV ([3]; Peripheral, time 3′, Baseline 33 ± 3): 33 ± 3
MAP ([3]; Peripheral, time 3′, Baseline 118 ± 8): 115 ± 7 mmHg
HR ([3]; Peripheral, time 3′, Baseline 165 ± 10): 165 ± 9
APV ([3]; Peripheral, time 4′, Baseline 33 ± 3): 31 ± 3
MAP ([3]; Peripheral, time 4′, Baseline 118 ± 8): 119 ± 8 mmHg
HR ([3]; Peripheral, time 4′, Baseline 165 ± 10): 160 ± 9
APV ([3]; Peripheral, time 5′, Baseline 33 ± 3): 30 ± 2
MAP ([3]; Peripheral, time 5′, Baseline 118 ± 8): 121 ± 7 mmHg
HR ([3]; Peripheral, time 5′, Baseline 165 ± 10): 158 ± 10
APV ([3]; Peripheral, time 10″, Baseline 33 ± 3): 62 ± 9
MAP ([3]; Peripheral, time 10″, Baseline 118 ± 8): 107 ± 9 mmHg
HR ([3]; Peripheral, time 10″, Baseline 165 ± 10): 171 ± 6
APV ([3]; Peripheral, time 20″, Baseline 33 ± 3): 76 ± 10
MAP ([3]; Peripheral, time 20″, Baseline 118 ± 8): 85 ± 9 mmHg
HR ([3]; Peripheral, time 20″, Baseline 165 ± 10): 162 ± 15
APV ([3]; Peripheral, time 30″, Baseline 33 ± 3): 59 ± 11
MAP ([3]; Peripheral, time 30″, Baseline 118 ± 8): 87 ± 9 mmHg
HR ([3]; Peripheral, time 30″, Baseline 165 ± 10): 168 ± 9
duration of >2-fold increase in coronary APV [3, 4]: < 20 s
time for all parameters to return to baseline post injection [3, 4]: ≤ 10 min
Coronary, maximal folds increase in average peak velocity (APVmax/APVbaseline) ([3]; anesthetized dogs): 2.5 ± 0.3 fold
Peripheral, maximal folds increase in average peak velocity (APVmax/APVbaseline) ([3]; anesthetized dogs): 2.0 ± 0.4 fold
Coronary, maximal folds increase in average peak velocity (APVmax/APVbaseline) [3, 5]: 2.5±0.3 fold
Peripheral, maximal folds increase in average peak velocity (APVmax/APVbaseline) [3, 5]: 2.0±0.4 fold
